25 compounds from patent publication US8658661B2, “Oxadiazole inhibitors of leukotriene production” (Boehringer Ingelheim International GmbH, priority 2010, dated 2014) can be followed below.

Experiment [1] has as its system synthesis of LTB4 in human whole blood. Put plainly: Human whole blood assay (inhibition of LTB4 synthesis, calcimycin stimulated). Conditions: heparinized human whole blood, calcimycin 20 μM, plasma LTB4. It is filed as cell-based. The gist of the method:
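Heparinized human whole blood preincubated with compound 15 min at 37 °C, then stimulated with calcimycin (20 μM final) for 30 min at 37 °C. Plasma LTB4 measured after low-speed centrifugation by antibody-based homogeneous time-resolved fluorescence.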

Experiment [2] deals with T1, recombinant human FLAP protein (Homo sapiens, UniProt P20292).
T1 construct: made in house; host or cells: Sf9 insect cells (100,000×g membrane pellet used)
T1 sequence (P20292 1-161): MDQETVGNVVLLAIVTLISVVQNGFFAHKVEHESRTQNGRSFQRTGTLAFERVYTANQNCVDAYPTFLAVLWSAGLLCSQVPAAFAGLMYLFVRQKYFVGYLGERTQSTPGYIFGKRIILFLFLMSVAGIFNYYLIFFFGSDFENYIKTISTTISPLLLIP
Nature of the experiment: FLAP binding assay (SPA, displacement of [125I]L-691,831). Conditions: membranes of sf9 cells expressing recombinant human FLAP; [125I]L-691,831 probe; read-out: FLAP binding IC50. The gist of the method: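 Membranes from sf9 cells expressing human FLAP in pH 7.5 Tris buffer (MgCl2, EDTA, PMSF). Non-specific binding defined with 10 μM cold L-691,831.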

`CC(c1ccc(-c2ccc(N)nc2)cc1)(c1noc(N2CCC(O)CC2)n1)C1CC1` (centres unmarked) [Example 248, 1-(3-{1-[4-(6-Amino-pyridin-3-yl)-phenyl]-1-cyclopropyl-ethyl}-[1,2,4]oxadiazol-5-yl)-piperidin-4-ol]: the IC50 in experiment [1] amounted to 80 nM; in experiment [2] it was 10 nM.

For `CCNc1ncc(-c2ccc(C(C)(c3noc(-c4cnn(CC(=O)N(C)C)c4)n3)C3CC3)cc2)cn1` (centres unmarked) [Example 249, 2-[4-(3-{1-Cyclopropyl-1-[4-(2-ethylamino-pyrimidin-5-yl)-phenyl]-ethyl}-[1,2,4]oxadiazol-5-yl)-pyrazol-1-yl]-N,N-dimethyl-acetamide], the concentration for half-maximal inhibition (IC50) in experiment [1] was over 5000 nM; in experiment [2], 370 nM.

Regarding `CN(C)C(=O)Cn1cc(-c2nc(C(C)(c3ccc(-c4cnc(NC5CC5)nc4)cc3)C3CC3)no2)cn1` (centres unmarked) [Example 250, 2-[4-(3-{1-Cyclopropyl-1-[4-(2-cyclopropylamino-pyrimidin-5-yl)-phenyl]-ethyl}[1,2,4]oxadiazol-5-yl)-pyrazol-1-yl]-N,N-dimethyl-acetamide], the half-inhibitory concentration (IC50) was over 5000 nM in experiment [1] and 470 nM in experiment [2].

With `CNc1ccc(-c2ccc(C(C)(c3noc(-c4cnn(CC(=O)N(C)C)c4)n3)C3CC3)cc2)cn1` (centres unmarked) [Example 251, 2-[4-(3-{1-Cyclopropyl-1-[4-(6-methylamino-pyridin-3-yl)-phenyl]-ethyl}-[1,2,4]oxadiazol-5-yl)-pyrazol-1-yl]-N,N-dimethyl-acetamide], the concentration for half-maximal inhibition (IC50) in experiment [1] turned out to be 130 nM; in experiment [2], 9.1 nM.

Take `CC(c1ccc(-c2cnc(N)nc2)cc1)(c1noc(N2CCN(CCO)CC2)n1)C1CC1` (centres unmarked) [Example 252, 2-[4-(3-{1-[4-(2-Amino-pyrimidin-5-yl)-phenyl]-1-cyclopropyl-ethyl}-[1,2,4]oxadiazol-5-yl)-piperazin-1-yl]-ethanol]: the concentration for half-maximal inhibition (IC50) is 220 nM in experiment [1] and 15 nM in experiment [2].

On to `Cn1cc(-c2nc(C(C)(c3ccc(-c4cnc5[nH]ccc5c4)cc3)C3CC3)no2)cn1` (centres unmarked) [Example 253, 5-(4-{1-Cyclopropyl-1-[5-(1-methyl-1H-pyrazol-4-yl)-[1,2,4]oxadiazol-3-yl]-ethyl}-phenyl)-1H-pyrrolo[2,3-b]pyridine], for which the half-maximal inhibitory concentration (IC50) in experiment [1] turned out to be 120 nM; in experiment [2], 3.8 nM.

As to `CN(C)C(=O)Cn1cc(-c2nc([C@@](C)(c3ccc(-c4cnc5c(c4)OCCN5)cc3)C3CC3)no2)cn1` [Example 254, 2-[4-(3-{(R)-1-Cyclopropyl-1-[4-(3,4-dihydro-2H-pyrido[3,2-b][1,4]oxazin-7-yl)-phenyl]-ethyl}-[1,2,4]oxadiazol-5-yl)-pyrazol-1-yl]-N,N-dimethyl-acetamide], the results for the half-inhibitory concentration (IC50) in experiment [1] and in experiment [2] were 210 nM and 2.8 nM, respectively.

Turning to `CN(C)C(=O)Cn1cc(-c2nc([C@](C)(c3ccc(-c4cnc5c(c4)OCCN5)cc3)C3CC3)no2)cn1` [Example 255, 2-[4-(3-{(S)-1-Cyclopropyl-1-[4-(3,4-dihydro-2H-pyrido[3,2-b][1,4]oxazin-7-yl)-phenyl]-ethyl}-[1,2,4]oxadiazol-5-yl)-pyrazol-1-yl]-N,N-dimethyl-acetamide], the IC50 is 1800 nM in experiment [1] and 15 nM in experiment [2].

As for `Cn1cc(-c2nc(C(C)(c3ccc(-c4cnc5c(c4)CCN5)cc3)C3CC3)no2)cn1` (centres unmarked) [Example 256, 5-(4-{1-Cyclopropyl-1-[5-(1-methyl-1H-pyrazol-4-yl)-[1,2,4]oxadiazol-3-yl]-ethyl}-phenyl)-2,3-dihydro-1H-pyrrolo[2,3-b]pyridine], the results for the IC50 in experiment [1] and in experiment [2] were 51 nM and 4.5 nM, respectively.

With `Cc1nc(N)ncc1-c1ccc([C@](C)(c2noc(-c3cnn(CC(=O)N(C)C)c3)n2)C2CC2)cc1` [Example 257, 2-[4-(3-{(R)-1-[4-(2-Amino-4-methyl-pyrimidin-5-yl)-phenyl]-1-cyclopropyl-ethyl}-[1,2,4]oxadiazol-5-yl)-pyrazol-1-yl]-N,N-dimethyl-acetamide], the figures for the half-inhibitory concentration (IC50) in experiment [1] and in experiment [2] were 150 nM and 7.3 nM, respectively.

Turning to `Cc1nc(N)ncc1-c1ccc([C@@](C)(c2noc(-c3cnn(CC(=O)N(C)C)c3)n2)C2CC2)cc1` [Example 258, 2-[4-(3-{(S)-1-[4-(2-Amino-4-methyl-pyrimidin-5-yl)-phenyl]-1-cyclopropyl-ethyl}-[1,2,4]oxadiazol-5-yl)-pyrazol-1-yl]-N,N-dimethyl-acetamide], the IC50 in experiment [1] was found to be 2300 nM; in experiment [2] it was 430 nM.

`CC(c1ccc(-c2cnc(N)nc2)cc1)(c1noc(N2CCC(S(C)(=O)=O)CC2)n1)C1CC1` (centres unmarked) [Example 259, 5-(4-{1-Cyclopropyl-1-[5-(4-methanesulfonyl-piperidin-1-yl)-[1,2,4]oxadiazol-3-yl]-ethyl}-phenyl)-pyrimidin-2-ylamine]: the values for the IC50 in experiment [1] and in experiment [2] were 270 nM and 16 nM, respectively.

In the case of `CC(C)C(C)(c1ccc(-c2cnc(N)nc2)cc1)c1noc(N(C)CCN(C)C)n1` (centres unmarked) [Example 260, N-(3-{1-[4-(2-Amino-pyrimidin-5-yl)-phenyl]-1,2-dimethyl-propyl}-[1,2,4]oxadiazol-5-yl)-N,N′,N′-trimethyl-ethane-1,2-diamine], the IC50 came to 900 nM in experiment [1] and 94 nM in experiment [2].

Consider `CC(C)C(C)(c1ccc(-c2cnc(N)nc2)cc1)c1noc(N2CCN(C(C)(C)C)CC2)n1` (centres unmarked) [Example 261, 5-(4-{1-[5-(4-tert-Butyl-piperazin-1-yl)-[1,2,4]oxadiazol-3-yl]-1,2-dimethyl-propyl}-phenyl)-pyrimidin-2-ylamine], for which the IC50 in experiment [1] worked out at 190 nM; in experiment [2], 11 nM.

As to `C[C@@](c1ccc(-c2ccc(N)nc2)cc1)(c1noc(-c2cnn(C3COC3)c2)n1)C1CC1` [Example 263, 5-(4-{(R)-1-Cyclopropyl-1-[5-(1-oxetan-3-yl-1H-pyrazol-4-yl)-[1,2,4]oxadiazol-3-yl]-ethyl}-phenyl)-pyridin-2-ylamine], the results for the IC50 in experiment [1] and in experiment [2] were 21 nM and 3.5 nM, respectively.

On to `CC(C)N1CCN(c2nc(C(C)(c3ccc(-c4cnc(N)nc4)cc3)C(C)C)no2)CC1` (centres unmarked) [Example 264, 5-(4-{1-[5-(4-Isopropyl-piperazin-1-yl)-[1,2,4]oxadiazol-3-yl]-1,2-dimethyl-propyl}-phenyl)-pyrimidin-2-ylamine], for which the IC50 in experiment [1] amounted to 120 nM; in experiment [2], 11 nM.

On to `C[C@@](c1ccc(-c2cnc(N)cn2)cc1)(c1noc(-c2cnn(C3COC3)c2)n1)C1CC1` [Example 265, 5-(4-{(R)-1-Cyclopropyl-1-[5-(1-oxetan-3-yl-1H-pyrazol-4-yl)-[1,2,4]oxadiazol-3-yl]-ethyl}-phenyl)-pyrazin-2-ylamine; compound with trifluoro-acetic acid], for which the IC50 in experiment [1] came to 22 nM; in experiment [2] it was 5.1 nM.

For `CC(C)C(C)(c1ccc(-c2cnc(N)nc2)cc1)c1noc(N2CCN(C3CC3)CC2)n1` (centres unmarked) [Example 266, 5-(4-{1-[5-(4-Cyclopropyl-piperazin-1-yl)-[1,2,4]oxadiazol-3-yl]-1,2-dimethyl-propyl}-phenyl)-pyrimidin-2-ylamine], the results for the IC50 in experiment [1] and in experiment [2] were 170 nM and 16 nM, respectively.

For the compound `C[C@](c1ccc(-c2cnc(N)nc2)cc1)(c1noc(-c2cnc(N3CCNCC3)cn2)n1)C1CC1` [Example 267, 5-(4-{(S)-1-Cyclopropyl-[5-(3,4,5,6-tetrahydro-2H-[1,2′]bipyrazinyl-5′-yl)-[1,2,4]oxadiazol-3-yl]-ethyl}-phenyl)-pyrimidin-2-ylamine], the IC50 in experiment [1] worked out at 390 nM; in experiment [2], 12 nM.

As to `C[C@](c1ccc(-c2ccc(N)nc2)cc1)(c1noc(-c2cnc(N3CCNCC3)cn2)n1)C1CC1` [Example 268, 5-(4-{(S)-1-Cyclopropyl-1-[5-(3,4,5,6-tetrahydro-2H-[1,2′]bipyrazinyl-5′-yl)-[1,2,4]oxadiazol-3-yl]-ethyl}-phenyl)-pyridin-2-ylamine], the IC50 in experiment [1] came out at 600 nM; in experiment [2], 9.3 nM.

As for `CC(C)C(C)(c1ccc(-c2cnc(N)nc2)cc1)c1noc(N2CCN(C(=O)N(C)C)CC2)n1` (centres unmarked) [Example 269, 4-(3-{1-[4-(2-Amino-pyrimidin-5-yl)-phenyl]-1,2-dimethyl-propyl}-[1,2,4]oxadiazol-5-yl)-piperazine-1-carboxylic acid dimethylamide], the IC50 turned out to be 230 nM in experiment [1] and 24 nM in experiment [2].

In the case of `COC1CCN(c2nc(C(C)(c3ccc(-c4cnc(N)nc4)cc3)C(C)C)no2)CC1` (centres unmarked) [Example 270, 5-(4-{1-[5-(4-Methoxy-piperidin-1-yl)-[1,2,4]oxadiazol-3-yl]-1,2-dimethyl-propyl}-phenyl)-pyrimidin-2-ylamine], the results for the IC50 in experiment [1] and in experiment [2] were 96 nM and 9.8 nM, respectively.

Consider `C[C@@](c1ccc(-c2cnc(N)nc2)cc1)(c1noc(-c2cnn(C3CC3)c2)n1)C1CC1` [Example 271, 5-(4-{(R)-1-Cyclopropyl-1-[5-(1-cyclopropyl-1H-pyrazol-4-yl)-[1,2,4]oxadiazol-3-yl]-ethyl}-phenyl)-pyrimidin-2-ylamine], for which the IC50 was found to be 51 nM in experiment [1] and 4.9 nM in experiment [2].

`CC(C)C(C)(c1ccc(-c2cnc(N)nc2)cc1)c1noc(N2CCN(CC(=O)O)CC2)n1` (centres unmarked) [Example 272, [4-(3-{1-[4-(2-Amino-pyrimidin-5-yl)-phenyl]-1,2-dimethyl-propyl}-[1,2,4]oxadiazol-5-yl)-piperazin-1-yl]-acetic acid]: the concentration for half-maximal inhibition (IC50) is over 5000 nM in experiment [1] and 280 nM in experiment [2].

With `Cn1cc(-c2nc(C(C)(c3ccc(-c4cnc5[nH]ccc5n4)cc3)C3CC3)no2)cn1` (centres unmarked) [Example 273, 2-(4-{1-Cyclopropyl-1-[5-(1-methyl-1H-pyrazol-4-yl)-[1,2,4]oxadiazol-3-yl]-ethyl}-phenyl)-5H-pyrrolo[2,3-b]pyrazine], the IC50 in experiment [1] turned out to be 56 nM; in experiment [2], 6.1 nM.
